The source made the active and inactive calls. The rule behind the calls is not given here.

Assay [1] is described as follows: mouse liver ABHD6 target engagement – competitive gel-based ABPP, fluorescence, in vivo study for DAGLb inhibitor project, late-stage follow-up (AID 624041). The settings on record: in vivo dosing, anti-target, probe FP-Rh, stronger effect = higher value.
Assay [2] has as its target Monoacylglycerol lipase ABHD6 (Mus musculus) (UniProt Q8R2Y0). The assay is described as above. The settings on record: in vivo dosing.

Chain of Monoacylglycerol lipase ABHD6 (Mus musculus) (Q8R2Y0 whole entry, looked up): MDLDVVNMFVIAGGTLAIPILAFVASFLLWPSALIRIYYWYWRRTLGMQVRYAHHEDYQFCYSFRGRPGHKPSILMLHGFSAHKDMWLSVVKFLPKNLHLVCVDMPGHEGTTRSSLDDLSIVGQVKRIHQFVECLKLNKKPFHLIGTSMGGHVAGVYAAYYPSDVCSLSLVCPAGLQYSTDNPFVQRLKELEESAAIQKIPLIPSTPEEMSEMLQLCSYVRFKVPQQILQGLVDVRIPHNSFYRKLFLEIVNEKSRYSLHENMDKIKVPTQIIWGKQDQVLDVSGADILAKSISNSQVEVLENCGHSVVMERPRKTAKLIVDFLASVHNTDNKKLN

A word on the inhibition: it is the change of the read-out against control, counted positive when it falls. `COc1ccc(-c2ccc(-c3cn(C(=O)N4CCCCC4c4ccccc4)nn3)cc2)cc1` (stereo not drawn): the inhibition in assay [1] (65 kDa SH, dose or concentration not given here) is 70% (inactive); in assay [1] (65 kDa SH, inhibition at 5 mg/kg), 5%; in assay [1] (72 kDa SH, dose or concentration not given here), 80% (inactive); in assay [1] (72 kDa SH, inhibition at 5 mg/kg), 20%; in assay [2] (probe FP-Rh, stronger effect = higher value, dose or concentration not given here) it was 95%; in assay [2] (probe FP-Rh, inhibition at 5 mg/kg, stronger effect = higher value) it was 98%. Besides, the inhibition in assay [2] (probe HT-01, stronger effect = higher value, dose or concentration not given here) was 90%; in assay [2] (probe HT-01, inhibition at 5 mg/kg, stronger effect = higher value), 90%.

(Values after PubChem BioAssay AID624041 (The Scripps Research Institute Molecular Screening Center, 2012).)
